The target of assay [1] is T1, full length human TREX1 (Homo sapiens, UniProt Q9NSU2).
T1 construct: N-terminally His-Tev tagged full length human TREX1; made in house; host or cells: E. coli
T1 sequence (Q9NSU2 1-314): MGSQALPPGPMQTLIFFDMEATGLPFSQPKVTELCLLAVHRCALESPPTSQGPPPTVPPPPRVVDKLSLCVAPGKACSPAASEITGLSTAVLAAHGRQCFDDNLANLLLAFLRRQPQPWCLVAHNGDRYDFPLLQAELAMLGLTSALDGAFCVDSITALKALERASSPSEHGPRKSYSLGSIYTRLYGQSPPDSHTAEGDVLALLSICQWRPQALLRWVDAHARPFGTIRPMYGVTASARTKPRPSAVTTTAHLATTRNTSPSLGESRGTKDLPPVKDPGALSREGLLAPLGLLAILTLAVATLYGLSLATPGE
Nature of the assay: hTREX1 Biochemical Assay (fluorescence, dsDNA substrate degradation). To be noted: biochemical, read-out: hTREX1 IC50. Summed up:
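Fluorescence rises as enzyme degrades a quenched TEX615-labelled dsDNA substrate (60 nM) in 50 mM Tris, 150 mM NaCl, 5 mM MgCl2, pH 7.4. Full-length His-Tev-tagged human TREX1, 4 pM, sits with compound 4 hours at 25° C before substrate; reaction 18 hours, stopped with EDTA.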

In assay [2] the target is T2, full length mouse TREX1 (Mus musculus, UniProt Q91XB0).
T2 construct: N-terminally His-Tev tagged full length mouse TREX1; made in house; host or cells: E. coli
T2 sequence (Q91XB0 1-314): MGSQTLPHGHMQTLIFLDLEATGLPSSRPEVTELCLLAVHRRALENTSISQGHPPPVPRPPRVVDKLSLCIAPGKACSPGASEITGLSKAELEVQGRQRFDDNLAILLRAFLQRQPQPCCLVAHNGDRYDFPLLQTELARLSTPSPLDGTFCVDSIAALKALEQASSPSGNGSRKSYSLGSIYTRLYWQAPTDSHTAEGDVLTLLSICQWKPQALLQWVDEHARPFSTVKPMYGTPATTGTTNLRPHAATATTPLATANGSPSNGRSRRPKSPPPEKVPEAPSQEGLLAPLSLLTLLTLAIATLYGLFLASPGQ
Nature of the assay: mTREX1 Biochemical Assay (fluorescence, dsDNA substrate degradation). To be noted: biochemical, read-out: mTREX1 IC50. Summed up:
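Reaction run 18 h at 25° C. with 60 nM TEX615/quencher-labelled dsDNA and 6 pM mouse TREX1 in Tris buffer (pH 7.4, 5 mM MgCl2, 1.0% DMSO), enzyme having sat 4 h with compound across 10 concentrations. EDTA quench; substrate degradation measured as fluorescence increase.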

The target in assay [3] is T3, hTREX1 (Homo sapiens, UniProt Q9NSU2).
T3 construct: host or cells: HCT116 dual cells
T3 sequence (Q9NSU2 1-314): T1 sequence (Q9NSU2 1-314)
Description: hTREX1 HCT116 Cell Assay (HCT116 dual cells, Lucia luciferase reporter of Type I interferon induction). It counts as cell-based. To be noted: TREX1i 4 h before pBR322/BstNI transfection, read after 48 h. An excerpt: HCT116 dual cells (Invivogen, San Diego, CA, USA) are derived from the human HCT116 colorectal carcinoma cell line. Cells have been selected for the stable integration of SEAP and Luciferase reporter genes, which expression is under the control of 5 tandem response elements for NF-KB/AP1 and STAT1/STAT2, respectively. The cell line was used to monitor Type I interferon induction and subsequent signaling by measuring the activity of the Lucia luciferase secreted in the culture medium.
HCT116 cells were plated in 96-well plate(s) at 40,000 cells/well in 100 uL DMEM supplemented with 10% FBS and 25 mM Hepes (pH 7.2-7.5). After overnight settling, cells were treated with TREX1i for 4 h (maximum DMSO fraction was 0.1%) before 1 ug/mL pBR322/BstNI restriction digest (New England Biolabs, Ipswich, MA, USA) was transfected with Lipofectamine LTX (ThermoFisher, Grand Island, NY, USA), according to product manual recommendations. Briefly, Lipofectamine LTX (0.35 uL/well) was diluted in OptiMEM (5 uL/well). pBR322/BstNI (100 ng/well) was diluted in OptiMEM (5 uL/well) before Plus reagent (0.1 uL/100 ng DNA) was added. After 5 min incubation at room temperature, the DNA mixture was mixed dropwise with the diluted Lipofectamine LTX. After an additional 10 min incubation, the transfection mix (10 uL/well) was added to the cells. Cells were maintained at 37 C for 48 h before monitoring the Lucia Luciferase activity from the cell culture medium.
Background: In a reporter assay the amount or activity of a reporter protein is the signal.

For assay [4], the target named is T4, human TREX2 (residues M44-A279) (Homo sapiens, UniProt Q9BQ50).
T4 construct: human TREX2 (residues M44-A279, expressed in E. coli); made in house; host or cells: E. coli
T4 sequence (Q9BQ50 44-279 isoform Q9BQ50-1): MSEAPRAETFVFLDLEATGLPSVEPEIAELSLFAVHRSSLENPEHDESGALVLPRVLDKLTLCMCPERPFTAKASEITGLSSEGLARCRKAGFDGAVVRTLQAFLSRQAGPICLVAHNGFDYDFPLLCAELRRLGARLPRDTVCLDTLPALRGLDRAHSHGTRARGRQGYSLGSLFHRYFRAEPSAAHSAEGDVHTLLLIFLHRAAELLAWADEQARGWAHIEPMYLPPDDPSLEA
Nature of the assay: hTREX2 Biochemical Assay (fluorescence, dsDNA substrate degradation). To be noted: biochemical selectivity for hTREX1 vs hTREX2. Summed up:
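Fluorogenic dsDNA degradation read at 615 nm (570 nm excitation) after EDTA quench. Final 60 nM substrate, 50 pM His-Tev-tagged enzyme, 5 mM MgCl2, pH 7.4, 1.0% DMSO; 4 h compound–enzyme preincubation then 18 h reaction, both 25 °C; 10-point titration.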

`COCCn1ncc(C(c2ccccc2C#N)C(C)c2nc(C(=O)Nc3cnoc3)c(O)c(=O)n2C)c1C` (single isomer, unassigned) [Example 69 D1E1]: the values for the IC50 in assay [1], in assay [2] and in assay [3] were 1 to 10 nM, 1 to 10 nM and 10 to 100 nM, respectively. Moreover, the “hTREX1 vs hTREX2 selectivity” value in assay [4] is on record as “B (B = 25 to 50-fold selective for hTREX1)”.
As to `Cc1cc(C)n(C(c2ccccc2C#N)C(C)c2nc(C(=O)Nc3cnoc3)c(O)c(=O)n2C)n1` (single isomer, unassigned) [Example 137 D1E1], the results for the IC50 in assay [1], in assay [2] and in assay [3] were under 1 nM, 1 to 10 nM and under 10 nM, respectively. The “hTREX1 vs hTREX2 selectivity” value in assay [4] is given as “B (B = 25 to 50-fold selective for hTREX1)”.
For `Cc1ccc(C(c2ccccc2C#N)C(C)c2nc(C(=O)Nc3cnoc3)c(O)c(=O)n2C)cn1` (single isomer, unassigned) [Example 5 D1E2], the half-inhibitory concentration (IC50) (commonly the midpoint of a concentration-inhibition curve) in assay [1] is under 1 nM; in assay [2] it was under 1 nM; in assay [3], under 10 nM. The “hTREX1 vs hTREX2 selectivity” value in assay [4] is “B (B = 25 to 50-fold selective for hTREX1)”.
On to `Cc1cc(C(c2cc(F)ccc2C#N)C(C)c2nc(C(=O)Nc3cnoc3)c(O)c(=O)n2C)nn1C` (single isomer, unassigned) [Example 112 D2E1], for which the figures for the IC50 in assay [1], in assay [2] and in assay [3] were 1 to 10 nM, over 10 nM and over 100 nM, respectively. In addition, in assay [4], the “hTREX1 vs hTREX2 selectivity” value is listed as “A (A = <25 fold selective for hTREX1)”.
Regarding `Cc1cnc(C(c2ccccc2Cl)C(C)c2nc(C(=O)Nc3cnoc3)c(O)c(=O)n2C)cn1` (single isomer, unassigned) [Example 116 D1E1], the half-inhibitory concentration (IC50) was over 10 nM in assay [1], over 10 nM in assay [2] and over 100 nM in assay [3]. Also, the “hTREX1 vs hTREX2 selectivity” value in assay [4] was “A (A = <25 fold selective for hTREX1)”.
For `CC(c1nc(C(=O)Nc2cnoc2)c(O)c(=O)n1C)C(c1cnn(C)c1)c1ccc(C(F)(F)F)cc1C#N` (single isomer, unassigned) [Example 30 D1E1], the IC50 is under 1 nM in assay [1], under 1 nM in assay [2] and under 10 nM in assay [3]. The “hTREX1 vs hTREX2 selectivity” value in assay [4] is “C (C = >50 fold selective for hTREX1)”.
Consider `Cc1cn(C(c2ccccc2Cl)C(C)c2nc(C(=O)Nc3cnoc3)c(O)c(=O)n2C)cn1` (single isomer, unassigned) [Example 142 D1E2], for which the IC50 is under 1 nM in assay [1], 1 to 10 nM in assay [2] and over 100 nM in assay [3]. Moreover, in assay [4], the “hTREX1 vs hTREX2 selectivity” value is reported as “A (A = <25 fold selective for hTREX1)”.
Turning to `COCCn1ncc(C(c2cc(F)ccc2Cl)C(C)c2nc(C(=O)Nc3cnoc3)c(O)c(=O)n2C)c1C` (single isomer, unassigned) [Example 108 D2E1], the IC50 is 1 to 10 nM in assay [1], over 10 nM in assay [2] and 10 to 100 nM in assay [3]. For the same compound, in assay [4], the “hTREX1 vs hTREX2 selectivity” value is recorded as “A (A = <25 fold selective for hTREX1)”.
On to `Cc1cnc(C(c2ccccc2Cl)C(C)c2nc(C(=O)Nc3cnoc3)c(O)c(=O)n2C)cn1` (single isomer, unassigned) [Example 116 D1E2], for which the IC50 in assay [1] is under 1 nM; in assay [2], 1 to 10 nM; in assay [3] it was 10 to 100 nM. In assay [4], the “hTREX1 vs hTREX2 selectivity” value is “B (B = 25 to 50-fold selective for hTREX1)”.
The like results for `Cc1cnn(C(c2ccccc2Cl)C(C)c2nc(C(=O)Nc3cnoc3)c(O)c(=O)n2C)c1` (single isomer, unassigned) [Example 133 D1E2] were, in that order, 1 to 10 nM, 1 to 10 nM, 10 to 100 nM and “A (A = <25 fold selective for hTREX1)”.
As for `CC(c1nc(C(=O)Nc2cnoc2)c(O)c(=O)n1C)C(c1ccccc1Cl)n1cnc2ccccc21` (single isomer, unassigned) [Example 143 D1E1], the IC50 is under 1 nM in assay [1], 1 to 10 nM in assay [2] and 10 to 100 nM in assay [3]. Besides, in assay [4], the “hTREX1 vs hTREX2 selectivity” value was “B (B = 25 to 50-fold selective for hTREX1)”.
Consider `CC(c1nc(C(=O)Nc2cnoc2)c(O)c(=O)n1C)C(c1cnn(CCN(C)C)c1)c1ccccc1C#N` (single isomer, unassigned) [Example 33 D1E1], for which the figures for the IC50 in assay [1], in assay [2] and in assay [3] were 1 to 10 nM, 1 to 10 nM and over 100 nM, respectively. Further, the “hTREX1 vs hTREX2 selectivity” value in assay [4] was “C (C = >50 fold selective for hTREX1)”.
As for `Cc1cnn(C(c2cc(F)ccc2Cl)C(C)c2nc(C(=O)Nc3cnoc3)c(O)c(=O)n2C)c1` (single isomer, unassigned) [Example 144 D1E2], the IC50 in assay [1] is 1 to 10 nM; in assay [2], over 10 nM; in assay [3] it was over 100 nM. In addition, the “hTREX1 vs hTREX2 selectivity” value in assay [4] is on record as “A (A = <25 fold selective for hTREX1)”.
Turning to `Cc1cc(C(c2cc(F)ccc2C#N)C(C)c2nc(C(=O)Nc3cnoc3)c(O)c(=O)n2C)n(C)n1` (single isomer, unassigned) [Example 111 D2E1], the IC50 is under 1 nM in assay [1], over 10 nM in assay [2] and over 100 nM in assay [3]. For the same compound, in assay [4], the “hTREX1 vs hTREX2 selectivity” value is given as “C (C = >50 fold selective for hTREX1)”.
`Cc1cnc(C(c2cc(F)ccc2C#N)C(C)c2nc(C(=O)Nc3cnoc3)c(O)c(=O)n2C)cn1` (single isomer, unassigned) [Example 115 D2E2]: the IC50 in assay [1] is 1 to 10 nM; in assay [2], over 10 nM; in assay [3], over 100 nM. Moreover, the “hTREX1 vs hTREX2 selectivity” value in assay [4] is reported as “C (C = >50 fold selective for hTREX1)”.
For `CC(c1nc(C(=O)Nc2cnoc2)c(O)c(=O)n1C)C(c1ccccc1)c1cccnc1C#N` (single isomer, unassigned) [Example 155 D1E2], the IC50 is 1 to 10 nM in assay [1], 1 to 10 nM in assay [2] and over 100 nM in assay [3]. The “hTREX1 vs hTREX2 selectivity” value in assay [4] is “C (C = >50 fold selective for hTREX1)”.
`CCn1cc(C(c2ccccc2C#N)C(C)c2nc(C(=O)Nc3cnoc3)c(O)c(=O)n2C)cn1` (single isomer, unassigned) [Example 13 D2E1]: the IC50 in assay [1] was 1 to 10 nM; in assay [2], over 10 nM; in assay [3], over 100 nM. The “hTREX1 vs hTREX2 selectivity” value in assay [4] is recorded as “B (B = 25 to 50-fold selective for hTREX1)”.
The matching figures for `CC(c1nc(C(=O)Nc2cnoc2)c(O)c(=O)n1C)C(c1cnn(C)c1)c1ccccc1Cl` (single isomer, unassigned) [Example 77 D1E2]: over 10 nM, over 10 nM, over 100 nM and “A (A = <25 fold selective for hTREX1)”.

Values taken from patent US20240246946A1, “MODULATORS OF TREX1” (Constellation Pharmaceuticals, Inc., priority 2021, published 2024).
